Measured values: patent EP0199451B1, “Therapeutic nucleosides” (THE WELLCOME FOUNDATION LIMITED, priority 1985, dated 1986)
Where “and” joins values, the source holds several entries; their conditions need not be identical. Identical values can stand only once.

How the values were obtained:
[1] = test system: feline leukaemia virus (FeLV); assay: In vitro anti-feline leukaemia virus activity, indirect fluorescent antigen test in FLF-3 cells; type: cell-based, feline embryo lung fibroblasts (FLF-3); details: 3 days incubation at 37°C
Experimental: (§1) • (i) In Vitro Activity Susceptible feline embryo lung fibroblasts (FLF-3) were seeded onto multiwell slides (10⁵ cells/ml, 0.05ml/well) with Dulbecco-modified Eagle's essential medium (DME) and incubated at 37°C overnight. […] Concentrations were […]. After 3 days incubation at 37°C, the cultures were assayed by the indirect fluorescent antigen test for the production of FeLV. […] Two cats (a) received 15mg/kg/day, three (b) received 30mg/kg/day and another two (c) received 45mg/kg/day. All doses were administered as three equal doses daily. Of cats (a), only one responded to treatment at all, showing a 10% decrease in FeLV⁺ white blood cells (wbc's). Cats (b) (after 6 weeks) all responded to treatment showing a 10% and 90% drop in Fel_V⁺ wbc's. […] All measurements were taken after 3 weeks therapy, unless otherwise stated.

[2] = test system: FeLV; assay: In vivo anti-feline leukaemia virus activity in persistently infected cats
Experimental: as §1

[3] = Toxicity assay (LD50) in mice; details: mouse, in vivo
Experimental: (§2) The LD₅₀ value was in excess of 750 mg/kg in both species.

[4] = Toxicity assay (LD50) in rats; details: rat, in vivo
Experimental: as §2

Structure (SMILES): Cc1cn([C@H]2C[C@H](N=[N+]=[N-])[C@@H](CO)O2)c(=O)[nH]c1=O
- production of FeLV ([1]; 50µM and above): Complete absence of FeLV
- activity ([1]; 0.1µm): no activity
- inhibition ([1]; 1µm): 50-75%
- inhibition at 10 µM ([1]; 72 h, 10µM): 90%
- decrease in FeLV+ white blood cells (wbc's) ([2]; cats (a), intravenous 15mg/kg/day in three equal doses daily, after 3 weeks, only one of two cats responded): 10%
- drop in FeLV+ wbc's ([2]; cats (b), intravenous 30mg/kg/day in three equal doses daily, after 6 weeks, individual cats, 30 mg/kg/day): 10% and 90% and 5%
- drop in plasma levels of free FeLV ([2]; cats (b), third cat, intravenous 30mg/kg/day, after 6 weeks): hundred-fold
- decrease in FeLV+ wbc's ([2]; cats (c), intravenous 45mg/kg/day in three equal doses daily, after 3 weeks, one of two cats): 10%
- reduction in lymphadenopathy ([2]; cats (c), intravenous 45mg/kg/day, after 3 weeks, one cat): from 2 cm to 0.5 cm
- response to treatment ([2]; cats (c), intravenous 45mg/kg/day, after 3 weeks, the other of two cats): no response
- LD50 [3]: > 750 mg/kg
- LD50 [4]: > 750 mg/kg
